Assay results: patent US7132287B2, “Method for neural stem cell differentiation using 5HT-1A agonists” (Psychiatric Genomics, Inc., priority 2001, dated 2006)
“And” between values parts separate entries of the source, which are not always exact repeats. Equal entries are not always repeated.

Tested on: cortical neural stem cells
Test: Neuronal differentiation of cortical neural stem cells (β tubulin III / TuJ-1 immunofluorescence)
Assay type: cell-based, rat
Settings: 1 μM Buspirone alone, 6 days
Description: Isolation of cortical and striatal stem cells. Timed pregnant Sprague Dawley rats obtained from Taconic at embryonic age E14-E15 were sacrificed as described above and the uterus removed and placed in ice cold PBS in a 10 cm petridish. After rinsing the uterus in PBS, embryos were removed from the uterus, rinsed in PBS and collected in cold HBSS (buffered with HEPES and sodium bicarbonate) in a 10 cm petridish and placed on ice.
The cortex and striatum was dissected under a microscope and collected in a 15 ml tube of HBSS, on ice. Removal of meninges is not possible at this age, and no attempt was made to do so. If the dissected tissue was in large enough chunks and settle to the bottom of the tube, no centrifugation was performed. Alternatively, the tube was centrifuged at 1000 rpm for 5 minutes to pellet the tissue. Following centrifugation, the 15 ml tube containing the tissue was sprayed with 70% ethanol and taken into the sterile hood.
The HBSS was aspirated and replaced with 10 ml of DMEM/F12. The tissue was collected at the bottom of the tube by gravity or centrifugation, medium was aspirated, and 1 ml of DMEM/F12 was to the tissue. Cells were dissociated by trituration as described above, followed by addition of 5 ml of DMEM/F12 and a second round of trituration. […] The tubes were placed standing 5–10 minutes in the hood to allow larger particles and meninges to settle. While the meninges were settling, a cell count was made. 10 μl of the cell suspension is diluted with trypan blue and counted in a hemocytometer. Cells were counted in the four outer chambers with the larger squares, and cell count calculated assuming that the volume enclosed in each of the chambers was […].
Plating, expansion and passaging of cortical and striatal stem cells A generous amount of the triturated cell suspension was left in the original 15 ml tube to avoid fibroblast contamination in cultures. About 4–5 ml of the 6 ml of cells suspension was used for plating. Cells were plated at a concentration of approximately 1×10^6 per 10 cm dish. This culture is designated P0 (passage 0).
Following plating cells were expanded for about 3–4 days. The cultures were never permitted to reach more than 70% confluency. Cultures were then passaged as follows: 5 ml of HBSS was added to each 10 cm dish and the cells incubated at 37° C. for 15–45 minutes, or until sufficient numbers of the stem cells were rounded up. It is not expected that all cells in the culture will round up as there are several cell types in the culture at P0. The pH of the HBSS should be neutral at all times during this incubation. Cells were then removed from the dish by pipetting with a 5 ml pipette, or by scraping with a policeman, collected in a 15 or 50 ml conical tube, and centrifuged at 1000 g for 5 minutes. Cells were gently re-suspended in medium, counted, and plated at a density of about 1×10^6 per 10 cm dish.
Drug treatments. Stem cells obtained as described above were treated with drugs and subjected to differentiation protocols in the second passage. Cells were plated at a density of 1×10^4 cells per well of a 12-well petridish (Falcon).
Drug treatments were started on the next day. […] The WAY 100635 antagonist compound was used simultaneously with buspirone or serotonin in the blocking experiments. Positive and negative control cultures were those treated with BDNF and FGF alone, respectively.
Cells were treated with the designated concentrations of drugs or combinations thereof, daily, and were fed every alternate day with fresh medium. Experiments were maintained for about 6–10 days in most cases.

[1] = TuJ-1 staining, listed as Buspirone

## O=C1CC2(CCCC2)CC(=O)N1CCCCN1CCN(c2ncccn2)CC1 [buspirone, 8-[4-[4-(2-pyrimidinyl)-1-piperazinyl]butyl]-8-azaspiro[4,5]decane-7,9-dione]
  Total No. of Cells: 1168 and 1228
TuJ-1 staining
  % Fluorescent Cells: significant neuronal differentiation
[1]
  % Fluorescent Cells: 27.27% and 20.15%
  No. Fluorescent Cells: 320 and 260
